Results published in PubChem BioAssay (NCI).
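Grown in 96-well plates, cells were treated for 48 hours with each compound at five concentrations. Insufficient inhibition: endpoint recorded as highest concentration tested. TGI: total growth inhibition.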

Key:
Experiment in all cases: NCI tumour cell line growth inhibition, 48 h
UO-31 renal = tested on: UO-31 renal
U251 CNS = tested on: U251 CNS
DMS 114 small cell lung = tested on: DMS 114 small cell lung
RPMI-8226 leukemia = tested on: RPMI-8226 leukemia
SNB-75 CNS = tested on: SNB-75 CNS
HOP-92 NSCLC = tested on: HOP-92 NSCLC
SK-OV-3 ovarian = tested on: SK-OV-3 ovarian
SW-620 colon = tested on: SW-620 colon
HOP-18 NSCLC = tested on: HOP-18 NSCLC
OVCAR-3 ovarian = tested on: OVCAR-3 ovarian
ACHN renal = tested on: ACHN renal
A549 NSCLC = tested on: A549 NSCLC
SK-MEL-2 melanoma = tested on: SK-MEL-2 melanoma
RXF-631 renal = tested on: RXF-631 renal
SR leukemia = tested on: SR leukemia
IGROV1 ovarian = tested on: IGROV1 ovarian
SF-539 CNS = tested on: SF-539 CNS
NCI-H522 lung = tested on: NCI-H522 lung
EKVX NSCLC = tested on: EKVX NSCLC
DLD-1 colon = tested on: DLD-1 colon
SF-295 CNS = tested on: SF-295 CNS
SNB-78 CNS = tested on: SNB-78 CNS
CCRF-CEM leukemia = tested on: CCRF-CEM leukemia
NCI-H23 lung = tested on: NCI-H23 lung
HCC-2998 colon = tested on: HCC-2998 colon
LXFL 529 NSCLC = tested on: LXFL 529 NSCLC
XF 498 CNS = tested on: XF 498 CNS
OVCAR-8 ovarian = tested on: OVCAR-8 ovarian
M19-MEL melanoma = tested on: M19-MEL melanoma
DMS 273 small cell lung = tested on: DMS 273 small cell lung
K-562 leukemia = tested on: K-562 leukemia
MALME-3M melanoma = tested on: MALME-3M melanoma
UACC-257 melanoma = tested on: UACC-257 melanoma
UACC-62 melanoma = tested on: UACC-62 melanoma
MOLT-4 leukemia = tested on: MOLT-4 leukemia
SF-268 CNS = tested on: SF-268 CNS
COLO 205 colon = tested on: COLO 205 colon
HOP-62 NSCLC = tested on: HOP-62 NSCLC
HCT-15 colon = tested on: HCT-15 colon
NCI-H226 lung = tested on: NCI-H226 lung
TK-10 renal = tested on: TK-10 renal
SK-MEL-28 melanoma = tested on: SK-MEL-28 melanoma
NCI-H460 lung = tested on: NCI-H460 lung
KM20L2 colon = tested on: KM20L2 colon
CAKI-1 renal = tested on: CAKI-1 renal
HT29 colon = tested on: HT29 colon
SN12C renal = tested on: SN12C renal
HCT-116 colon = tested on: HCT-116 colon
SNB-19 CNS = tested on: SNB-19 CNS
OVCAR-5 ovarian = tested on: OVCAR-5 ovarian
KM12 colon = tested on: KM12 colon
M14 melanoma = tested on: M14 melanoma
RXF 393 renal = tested on: RXF 393 renal
OVCAR-4 ovarian = tested on: OVCAR-4 ovarian
HL-60(TB) leukemia = tested on: HL-60(TB) leukemia
LOX IMVI melanoma = tested on: LOX IMVI melanoma
786-0 renal = tested on: 786-0 renal
NCI/ADR-RES ovarian = tested on: NCI/ADR-RES ovarian
MCF7 breast = tested on: MCF7 breast
SK-MEL-5 melanoma = tested on: SK-MEL-5 melanoma
SN12K1 renal = tested on: SN12K1 renal
P388 leukemia = tested on: P388 leukemia
P388/ADR leukemia = tested on: P388/ADR leukemia
A498 renal = tested on: A498 renal

## O=C(CC1=Nc2nnc(CCCCCCCc3nnc4n3C(=O)C(CC(=O)c3ccc5ccccc5c3)=N4)n2C1=O)c1ccc2ccccc2c1
UO-31 renal
  TGI: > 100 µM
U251 CNS
  TGI: > 100 µM
DMS 114 small cell lung
  TGI: > 100 µM
RPMI-8226 leukemia
  TGI: > 100 µM
SNB-75 CNS
  TGI: > 100 µM
HOP-92 NSCLC
  TGI: > 100 µM
SK-OV-3 ovarian
  TGI: > 100 µM
SW-620 colon
  TGI: > 100 µM
HOP-18 NSCLC
  TGI: > 100 µM
OVCAR-3 ovarian
  TGI: > 100 µM
ACHN renal
  TGI: > 100 µM
A549 NSCLC
  TGI: > 100 µM
SK-MEL-2 melanoma
  TGI: > 100 µM
RXF-631 renal
  TGI: > 100 µM
SR leukemia
  TGI: > 100 µM
IGROV1 ovarian
  TGI: > 100 µM
SF-539 CNS
  TGI: > 100 µM
NCI-H522 lung
  TGI: > 100 µM
EKVX NSCLC
  TGI: > 100 µM
DLD-1 colon
  TGI: > 100 µM
SF-295 CNS
  TGI: > 100 µM
SNB-78 CNS
  TGI: > 100 µM
CCRF-CEM leukemia
  TGI: > 100 µM
NCI-H23 lung
  TGI: > 100 µM
HCC-2998 colon
  TGI: > 100 µM
LXFL 529 NSCLC
  TGI: > 100 µM
XF 498 CNS
  TGI: > 100 µM
OVCAR-8 ovarian
  TGI: > 100 µM
M19-MEL melanoma
  TGI: > 100 µM
DMS 273 small cell lung
  TGI: > 100 µM
K-562 leukemia
  TGI: > 100 µM
MALME-3M melanoma
  TGI: > 100 µM
UACC-257 melanoma
  TGI: > 100 µM
UACC-62 melanoma
  TGI: > 100 µM
MOLT-4 leukemia
  TGI: > 100 µM
SF-268 CNS
  TGI: > 100 µM
COLO 205 colon
  TGI: > 100 µM
HOP-62 NSCLC
  TGI: > 100 µM
HCT-15 colon
  TGI: > 100 µM
NCI-H226 lung
  TGI: > 100 µM
TK-10 renal
  TGI: > 100 µM
SK-MEL-28 melanoma
  TGI: > 100 µM
NCI-H460 lung
  TGI: > 100 µM
KM20L2 colon
  TGI: > 100 µM
CAKI-1 renal
  TGI: > 100 µM
HT29 colon
  TGI: > 100 µM
SN12C renal
  TGI: > 100 µM
HCT-116 colon
  TGI: > 100 µM
SNB-19 CNS
  TGI: > 100 µM
OVCAR-5 ovarian
  TGI: > 100 µM
KM12 colon
  TGI: > 100 µM
M14 melanoma
  TGI: > 100 µM
RXF 393 renal
  TGI: > 100 µM
OVCAR-4 ovarian
  TGI: > 100 µM
HL-60(TB) leukemia
  TGI: > 100 µM
LOX IMVI melanoma
  TGI: > 100 µM
786-0 renal
  TGI: > 100 µM

## CC(=O)C(=Cc1cn(C)c(=O)n(C)c1=O)C(C)=O
NCI/ADR-RES ovarian
  TGI: 286 µM
UO-31 renal
  TGI: 175 µM
U251 CNS
  TGI: 223 µM
DMS 114 small cell lung
  TGI: 227 µM
RPMI-8226 leukemia
  TGI: 284 µM
SNB-75 CNS
  TGI: 240 µM
HOP-92 NSCLC
  TGI: 8.16 µM
MCF7 breast
  TGI: 625 µM
SK-OV-3 ovarian
  TGI: 327 µM
SW-620 colon
  TGI: 302 µM
HOP-18 NSCLC
  TGI: 456 µM
SK-MEL-5 melanoma
  TGI: 176 µM
OVCAR-3 ovarian
  TGI: 299 µM
SN12K1 renal
  TGI: 228 µM
P388 leukemia
  TGI: 240 µM
A549 NSCLC
  TGI: 565 µM
SK-MEL-2 melanoma
  TGI: 255 µM
P388/ADR leukemia
  TGI: 392 µM
IGROV1 ovarian
  TGI: 470 µM
SF-539 CNS
  TGI: 209 µM
NCI-H522 lung
  TGI: 67.1 µM
EKVX NSCLC
  TGI: 323 µM
DLD-1 colon
  TGI: 222 µM
SF-295 CNS
  TGI: 254 µM
SNB-78 CNS
  TGI: 600 µM
CCRF-CEM leukemia
  TGI: 294 µM
NCI-H23 lung
  TGI: 194 µM
HCC-2998 colon
  TGI: 264 µM
XF 498 CNS
  TGI: 78.1 µM
OVCAR-8 ovarian
  TGI: 324 µM
M19-MEL melanoma
  TGI: 273 µM
DMS 273 small cell lung
  TGI: 225 µM
K-562 leukemia
  TGI: 465 µM
MALME-3M melanoma
  TGI: 201 µM
UACC-257 melanoma
  TGI: 177 µM
UACC-62 melanoma
  TGI: 148 µM
A498 renal
  TGI: 290 µM
MOLT-4 leukemia
  TGI: 382 µM
SF-268 CNS
  TGI: 526 µM
COLO 205 colon
  TGI: 189 µM
HOP-62 NSCLC
  TGI: 400 µM
HCT-15 colon
  TGI: 218 µM
NCI-H226 lung
  TGI: 293 µM
SK-MEL-28 melanoma
  TGI: 209 µM
NCI-H460 lung
  TGI: 231 µM
KM20L2 colon
  TGI: 230 µM
CAKI-1 renal
  TGI: 224 µM
HT29 colon
  TGI: 278 µM
SN12C renal
  TGI: 216 µM
HCT-116 colon
  TGI: 188 µM
SNB-19 CNS
  TGI: 414 µM
OVCAR-5 ovarian
  TGI: 235 µM
KM12 colon
  TGI: 189 µM
RXF 393 renal
  TGI: 148 µM
OVCAR-4 ovarian
  TGI: 273 µM
HL-60(TB) leukemia
  TGI: 271 µM
LOX IMVI melanoma
  TGI: 171 µM

## O=c1[nH]ccc(CNC23CC4CC(CC(C4)C2)C3)c1O
UO-31 renal
  TGI: > 100 µM
U251 CNS
  TGI: > 100 µM
RPMI-8226 leukemia
  TGI: > 100 µM
SNB-75 CNS
  TGI: > 100 µM
SK-OV-3 ovarian
  TGI: > 100 µM
SW-620 colon
  TGI: > 100 µM
HOP-18 NSCLC
  TGI: > 100 µM
SK-MEL-5 melanoma
  TGI: > 100 µM
OVCAR-3 ovarian
  TGI: > 100 µM
ACHN renal
  TGI: > 100 µM
A549 NSCLC
  TGI: > 100 µM
SK-MEL-2 melanoma
  TGI: > 100 µM
SR leukemia
  TGI: > 100 µM
IGROV1 ovarian
  TGI: > 100 µM
SF-539 CNS
  TGI: > 100 µM
NCI-H522 lung
  TGI: 52.7 µM
EKVX NSCLC
  TGI: > 100 µM
DLD-1 colon
  TGI: > 100 µM
SF-295 CNS
  TGI: > 100 µM
SNB-78 CNS
  TGI: > 100 µM
CCRF-CEM leukemia
  TGI: > 100 µM
NCI-H23 lung
  TGI: > 100 µM
HCC-2998 colon
  TGI: > 100 µM
LXFL 529 NSCLC
  TGI: > 100 µM
XF 498 CNS
  TGI: > 100 µM
OVCAR-8 ovarian
  TGI: > 100 µM
M19-MEL melanoma
  TGI: > 100 µM
DMS 273 small cell lung
  TGI: > 100 µM
K-562 leukemia
  TGI: > 100 µM
MALME-3M melanoma
  TGI: > 100 µM
UACC-257 melanoma
  TGI: > 100 µM
UACC-62 melanoma
  TGI: > 100 µM
A498 renal
  TGI: > 100 µM
MOLT-4 leukemia
  TGI: > 100 µM
COLO 205 colon
  TGI: > 100 µM
HOP-62 NSCLC
  TGI: > 100 µM
HCT-15 colon
  TGI: > 100 µM
NCI-H226 lung
  TGI: > 100 µM
TK-10 renal
  TGI: > 100 µM
NCI-H460 lung
  TGI: > 100 µM
KM20L2 colon
  TGI: > 100 µM
CAKI-1 renal
  TGI: > 100 µM
HT29 colon
  TGI: > 100 µM
SN12C renal
  TGI: > 100 µM
HCT-116 colon
  TGI: > 100 µM
SNB-19 CNS
  TGI: > 100 µM
OVCAR-5 ovarian
  TGI: > 100 µM
KM12 colon
  TGI: > 100 µM
M14 melanoma
  TGI: > 100 µM
RXF 393 renal
  TGI: > 100 µM
OVCAR-4 ovarian
  TGI: > 100 µM
HL-60(TB) leukemia
  TGI: > 100 µM
786-0 renal
  TGI: > 100 µM
